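48-hour exposure; five concentrations; linearly interpolated endpoints. Here, GI50 denotes the concentration required for 50% inhibition of growth.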 Active and inactive are the calls of the source. Rule as the data show it: active = GI50 up to about 1.1 µM and inactive = higher.
Legend:
Assay in all cases: DTP human tumour cell line panel, 48 h
OVCAR-4 = system: OVCAR-4
U-251 = system: U-251
HCC 2998 = system: HCC 2998
OVCAR-3 = system: OVCAR-3
NCI-H226 = system: NCI-H226
OVCAR-5 = system: OVCAR-5
RPMI-8226 = system: RPMI-8226
SNB-19 = system: SNB-19
SNB-75 = system: SNB-75
DU-145 = system: DU-145
SF-295 = system: SF-295
NCI/ADR-RES = system: NCI/ADR-RES
SK-MEL-2 = system: SK-MEL-2
MDA-MB-435 = system: MDA-MB-435
SK-MEL-5 = system: SK-MEL-5
HOP-62 = system: HOP-62
Hs-578T = system: Hs-578T
SF-539 = system: SF-539
IGROV-1 = system: IGROV-1
K562 = system: K562

| SMILES | GI50 (OVCAR-4) | GI50 (U-251) | GI50 (HCC 2998) | GI50 (OVCAR-3) | GI50 (NCI-H226) | GI50 (OVCAR-5) | GI50 (RPMI-8226) | GI50 (SNB-19) | GI50 (SNB-75) | GI50 (DU-145) | GI50 (SF-295) | GI50 (NCI/ADR-RES) | GI50 (SK-MEL-2) | GI50 (MDA-MB-435) | GI50 (SK-MEL-5) | GI50 (HOP-62) | GI50 (Hs-578T) | GI50 (SF-539) | GI50 (IGROV-1) | GI50 (K562) |
| --- | --- | --- | --- | --- | --- | --- | --- | --- | --- | --- | --- | --- | --- | --- | --- | --- | --- | --- | --- | --- |
| CCOC(=O)C#Cc1ccc([N+](=O)[O-])cc1 | 11.2 µM (inactive) | 1.64 µM (inactive) | 14.8 µM (inactive) | 1.71 µM (inactive) | 2.68 µM (inactive) | 1 µM (active) | 1.98 µM (inactive) | 13 µM (inactive) | 2.24 µM (inactive) | 1.74 µM (inactive) | 12.9 µM (inactive) | 4.18 µM (inactive) | 3.24 µM (inactive) | 3.44 µM (inactive) | 2.67 µM (inactive) | 3.24 µM (inactive) | 4.18 µM (inactive) | 2.06 µM (inactive) | 1.96 µM (inactive) | 2.07 µM (inactive) |
| O=C1/C(=C/c2ccccc2[N+](=O)[O-])N=C(c2ccccc2)N1c1nc2ccccc2s1 | 19.4 µM (inactive) | 29.4 µM (inactive) | 17.8 µM (inactive) | 21.1 µM (inactive) | 41.3 µM (inactive) | 73.6 µM (inactive) | 9.82 µM (inactive) | 42.6 µM (inactive) | 27.3 µM (inactive) | 20.9 µM (inactive) | 40.2 µM (inactive) | 16.6 µM (inactive) | 33.2 µM (inactive) | 19.4 µM (inactive) | 25.2 µM (inactive) | 27.1 µM (inactive) | 19.1 µM (inactive) | 30.1 µM (inactive) | 11.9 µM (inactive) | 15 µM (inactive) |
| Cc1cc2c(cc1Cl)SC(NN(C)C)=NS2(=O)=O | > 10 µM (inactive) | > 10 µM (inactive) | > 10 µM (inactive) | > 10 µM (inactive) | > 10 µM (inactive) | > 10 µM (inactive) | > 10 µM (inactive) | > 10 µM (inactive) | > 10 µM (inactive) | > 10 µM (inactive) | > 10 µM (inactive) | > 10 µM (inactive) | > 10 µM (inactive) | > 10 µM (inactive) | > 10 µM (inactive) | > 10 µM (inactive) | > 10 µM (inactive) | > 10 µM (inactive) | > 10 µM (inactive) | > 10 µM (inactive) |
| CCOc1cc(NC(C)=O)ccc1C(=O)NN1C(=O)CSC1c1ccccc1 (centres undefined) | 84.1 µM (inactive) | – | > 100 µM (inactive) | 96.6 µM (inactive) | > 100 µM (inactive) | > 100 µM (inactive) | 26.1 µM (inactive) | > 100 µM (inactive) | 95.3 µM (inactive) | > 100 µM (inactive) | 45.2 µM (inactive) | 35.7 µM (inactive) | > 100 µM (inactive) | > 100 µM (inactive) | 34.4 µM (inactive) | > 100 µM (inactive) | > 100 µM (inactive) | > 100 µM (inactive) | > 100 µM (inactive) | 28.8 µM (inactive) |
| C=C1CCOC2(C(O)C(C)(O)CO)NC(=O)C1(O)NC2=O (centres undefined) | > 100 µM (inactive) | > 100 µM (inactive) | > 100 µM (inactive) | > 100 µM (inactive) | > 100 µM (inactive) | > 100 µM (inactive) | > 100 µM (inactive) | > 100 µM (inactive) | > 100 µM (inactive) | > 100 µM (inactive) | > 100 µM (inactive) | > 100 µM (inactive) | > 100 µM (inactive) | > 100 µM (inactive) | > 100 µM (inactive) | > 100 µM (inactive) | > 100 µM (inactive) | > 100 µM (inactive) | > 100 µM (inactive) | > 100 µM (inactive) |
| CCN(CC)CCNc1ccc(/N=N/c2ccc(S(N)(=O)=O)cc2)c2ccccc12 | 12.9 µM (inactive) | 4.61 µM (inactive) | 8.75 µM (inactive) | 2.43 µM (inactive) | 23.6 µM (inactive) | 23 µM (inactive) | 3.37 µM (inactive) | 11.9 µM (inactive) | 10.3 µM (inactive) | 12 µM (inactive) | 4.3 µM (inactive) | 24.2 µM (inactive) | 5.9 µM (inactive) | 7.35 µM (inactive) | 5.06 µM (inactive) | 6.73 µM (inactive) | 15.5 µM (inactive) | 3.63 µM (inactive) | 13.1 µM (inactive) | 3.13 µM (inactive) |
| CCOC(=O)/C=C(/C(=O)OCC)n1ccc(=O)n(Cc2cn(COCCOC(C)=O)nn2)c1=O | 22.9 µM (inactive) | 28 µM (inactive) | 17.8 µM (inactive) | 17.8 µM (inactive) | 33.7 µM (inactive) | 20.1 µM (inactive) | 19.5 µM (inactive) | 70.5 µM (inactive) | 33 µM (inactive) | 40.2 µM (inactive) | > 100 µM (inactive) | 20.3 µM (inactive) | 25.2 µM (inactive) | 17.9 µM (inactive) | 25.8 µM (inactive) | > 100 µM (inactive) | 26.4 µM (inactive) | 20.3 µM (inactive) | 18 µM (inactive) | 19.1 µM (inactive) |

— ChEMBL document CHEMBL1201862, “PubChem BioAssay data set” (2004)
